Tests used:
[1] = tested on: non-treatment-seeking individuals with AUD; test: Phase 1b study: daily alcohol craving (AUQ); assay type: in vivo, human; conditions: 50 mg BID; over the course of the study; p<0.05; FIG. 4
Description: Twenty four non-treatment-seeking individuals with AUD were treated with ibudilast (50 mg BID) and placebo (PBO). Participants completed two alcohol IV challenges, one after taking IBUD for 6 days and one after taking matched PBO for 6 days with a 5-10 day washout period between the study drug conditions. Ibudilast was obtained in the form of capsules containing a delayed-release 10 mg formulation. Matching capsules of the placebo also were obtained. Each participant visited the Clinical and Translational Research Center (CTRC) during on Days 1-5 of each medication condition during which they came in for daily morning visits with the study nurse to take the morning study medication under direct observation and took home the evening study medication. The participants stayed overnight on Day 6 and were discharged on Day 7. […]
(§1) The study comprised a treatment group and a placebo group and each participant completed a daily assessment questionnaire to address changes in mood, withdrawal effects, alcohol cravings, and address issues pertaining to other side effects. […] Following the intravenous alcohol challenge, participants were monitored for 24 hours and then discharged. Following a 5-10 day washout period study participants were readmitted to the CTRC where they received the opposite treatment (IBUD or PBO) for the second part of the study.

[2] = tested on: non-treatment-seeking individuals with AUD; test: Phase 1b study: safety and tolerability; assay type: in vivo, human
Description: A Phase 1b laboratory study was conducted to determine the safety, tolerability, and initial efficacy of ibudilast (50 mg BID) in humans as a potential AUD therapeutic agent.
To address each of the above mentioned specific aims, a randomized, crossover, double-blind, placebo-controlled study was conducted to determine the safety, tolerability, and efficacy of ibudilast in individuals with current AUD. Participants were between the ages of 21 and 65 years; met the DSM-5 diagnostic criteria for AUD; reported drinking at least 48 standard drinks in a 30-day period, during the 90 days before enrollment; and were non-treatment seeking alcohol dependent individuals who consented to an inpatient stay at a medical facility for part of the study.
Twenty four non-treatment-seeking individuals with AUD were treated with ibudilast (50 mg BID) and placebo (PBO). Participants completed two alcohol IV challenges, one after taking IBUD for 6 days and one after taking matched PBO for 6 days with a 5-10 day washout period between the study drug conditions. Ibudilast was obtained in the form of capsules containing a delayed-release 10 mg formulation. Matching capsules of the placebo also were obtained. Each participant visited the Clinical and Translational Research Center (CTRC) during on Days 1-5 of each medication condition during which they came in for daily morning visits with the study nurse to take the morning study medication under direct observation and took home the evening study medication. The participants stayed overnight on Day 6 and were discharged on Day 7. During the daily visits to the CTRC, the study nurse collected vital signs, asked about side effects in an open-ended fashion and used the Systematic Assessment for Treatment Emergent Events (SAFTEE).
as §1, with “effects. Thus, non-treatment seeking alcohol dependent individuals were treated with ibudilast 50 mg (5×10 mg capsules) twice daily (BID) or placebo (PBO).” for “effects.”
Breath alcohol content (BrAC) was monitored every 3 to 5 minutes during infusion until target BrAC's of 0.02 g·dl, 0.04 g·dl, 0.06 g·dl, and 0.08 g·dl were obtained, following which infusion rates were reduced to half the original rate to maintain stable BrAC levels during the testing phase. The following parameters were assessed prior to intravenous alcohol challenge and again at each target BrAC: (1) Biphasic Alcohol Effects Scale (BAES) to obtain a reliable and valid measure of alcohol's stimulant and sedative effects; (2) Alcohol Urge Questionnaire (AUQ)—an 8-item scale where subjects rate their craving for alcohol at the present moment, which is appropriate for examining the level of the urge to drink alcohol; (3) Alcohol Ratings Scale, which captures “liking” and “wanting” of alcohol”; (4) The Profile of Mood States (POMS; McNair 1971) which was used to record positive and negative mood states; and (5) Heart Rate and Blood Pressure levels measure at baseline and at each target level of BrAC.

[3] = tested on: non-treatment-seeking individuals with AUD; test: Phase 1b study: stress reactivity assessment (SR); assay type: in vivo, human; conditions: 50 mg BID
Excerpt: Personal information collected at the time of admission (day 1) to the CRTC was used to generate personalized scripts of neutral and stressful conditions. Participants were asked to identify a recent stressful experience and to rate them on a 0 to 10 Likert scale, where a rating of 10 is considered to be the most stressful experience. Only stressful events rated≥8 were used in script development. Data on physical symptoms associated with the stressful and neutral events were also collected for script development.
During the study, each exposure consisted of 5-minute tape-recorded scripts recounting the recent stressful (or neutral) events in the participants' lives, including cognitions and physical feelings. […]
The following measures of mood, urge to drink, and physiological reactivity were administered at baseline and post-imagery for both the stress and neutral conditions: (1) The Profile of Mood States, Short Version (POMS) collected data on (a) positive and negative mood; (2) The Alcohol Urge Questionnaire (AUQ) measured subjective levels of alcohol cravings at the present moment (i.e., following stress imagery); (3) Cortisol levels were assessed by collecting saliva samples and heart rate and blood pressure were measured using a Dynamap Adult Vital Signs Monitor. […]

[4] = tested on: high-alcohol-drinking (HAD1) rats; test: Voluntary ethanol consumption in high-alcohol-drinking (HAD1) rats; assay type: in vivo, rat; conditions: for dose dependence of effect on ethanol intake (2-way mixed ANOVA): p<0.001
Description: To perform the study, adult male P and HAD1 rats were randomly assigned to receive one of the following four doses of ibudilast—0 mg/Kg, 3 mg/Kg, 6 mg/Kg, or 9 mg/Kg with eight rats assigned to each dose. Each dosing group was balanced to average a 2 h/day ethanol (15% v/v) intake. Water was concurrently available to the rats and Mazola corn oil was used as the vehicle.
The study was divided into four test phases. In the maintenance test phase rats in the treatment group were injected ibudilast subcutaneously (2 mL/kg s.c.), using standard solutions that deliver 3 mg/Kg, 6 mg/Kg or 9 mg/Kg of ibudilast, 60 min before each ethanol test session and the same dose of ibudilast was administered subcutaneously to the rats 8 hours later. Rats in the control group, however, are administered 2 mL/Kg Mazola corn oil subcutaneously. This protocol was carried out for 4 consecutive days. Following the maintenance test phase, is a two week no drug recovery phase during which rats are permitted access to ethanol and the amount of ethanol consumed by the rats was measured.
The recovery phase is followed by a two week forced ethanol abstinence phase. Following forced abstinence, the effects of ibudilast on ethanol drinking were examined by re-introducing ethanol to rats for a period of 5 consecutive days (i.e., the Relapse Test phase). Each animal received the same dose of ibudilast during maintenance and relapse test phases.

24-hour food intake ([4]; HAD rats, especially at the 9 mg/Kg dose, effect diminished over the 5-day test phase): transitory reductions
Structure (SMILES): CC(C)C(=O)c1c(C(C)C)nn2ccccc12 [ibudilast, Ibudilast]
basal, daily alcohol craving (AUQ) [1]: significantly decreased
dose reductions during the course of the study ([2]; 50 mg BID): no dose reductions
drop-outs for adverse event-related reasons ([2]; 50 mg BID): No subjects dropped out
tolerability and safety ([2]; 50 mg BID oral (20 mg BID days 1-2), 6 days, humans with AUD): well tolerated and safe
heart rate or blood pressure in the context of alcohol consumption ([2]; 50 mg BID, IV alcohol, across the BrACs, p's>=0.35): did not affect
headache, reported adverse drug effect ([2]; 50 mg BID, vs 0 during placebo, p<0.05): 4 instances
stress-induced AUQ craving ([3]; day 5 stress-exposure): did not affect
positive mood during stress procedures ([3]; p<0.05, FIG. 6): increased positive mood
reduction of ethanol intake ([4]; HAD1 rats, 5-day Relapse Test phase): about 50%
dose dependence of effect on ethanol intake (2-way mixed ANOVA) ([4]; HAD1 rats, Relapse Test phase): dose dependent reduction in ethanol intake
reduction of ethanol intake ([4]; HAD1 rats, maintenance test phase, 4 days, s.c. twice daily, vs vehicle): approximately 50%
dose dependence of effect on ethanol intake (2-way mixed ANOVA) ([4]; HAD1 rats, maintenance test phase, 0, 3, 6, 9 mg/Kg): dose dependent reduction of ethanol intake
time course of reduced ethanol intake (Dose x Day interaction) ([4]; HAD1 rats, p=0.023, data not shown): most robust on the first day

— patent publication US20190151294A1, “TREATMENT OF ALCOHOLISM AND DEPRESSION AND/OR DYSPHORIC MOOD USING IBUDILAST” (MEDICINOVA, INC., priority 2016, published 2019)
